The subject of series [1] is brain proteins. Nature of the series: in vitro. As for the experimental part: The initial preparation of the dialysis membrane involved thawing brain homogenate in a water bath at room temperature and subsequently heating it at 37° C. for 10 minutes. The dialysis setup utilized was from HT Dialysis LLC, featuring a HT-Dialysis plate (Model HTD 96 b) and a dialysis membrane with a molecular weight cutoff of 12-14 kDa.
The membrane underwent a comprehensive pretreatment which included hydration in ultra-pure water at room temperature for approximately one hour. This was followed by separation and immersion in a 20:80 ethanol:water solution for about 20 minutes. After this treatment, the membranes were either used immediately or stored at 2-8° C. for up to one month, with a final rinse in ultra-pure water prior to experimental use.
For compound preparation, test and control substances were first dissolved to create 400 μM working solutions by mixing 4 μL of stock solution with 96 μL of DMSO. These working solutions were then further diluted to 2 μM in a blank matrix by combining 3 μL of the prepared solution with 597 μL of matrix, ensuring thorough mixing.
During the assay, 50 μL aliquots of the 2 μM compound-matrix mixture were dispensed in triplicate into a Sample Collection Plate. Each aliquot was paired with an equal volume of blank PBS to standardize the total volume to 100 μL per well at a 1:1 matrix to PBS ratio. A stop solution comprising 500 μL of acetonitrile with tolbutamide and labetalol at 250 nM each was added to stabilize the samples at TO. The samples were then shaken at 800 rpm for 10 minutes and stored at 2-8° C.
The dialysis procedure included assembling the dialysis device according to the manufacturer's specifications, loading the matrix aliquots into the donor side of the dialysis wells, and conducting the dialysis under a humidified atmosphere with 5% CO2 at 37° C. for 4 hours.
Post-dialysis, 50 μL samples were collected from both the receiver and donor sides into new 96-well plates. Volumes were adjusted to 100 μL by adding an equivalent amount of the opposite blank matrix or PBS. The samples were prepared for LC-MS/MS analysis after thorough vertexing and centrifugation. Blank control samples were prepared and processed similarly to mirror the test conditions.
Data analysis involved calculating the percentages of undiluted unbound and bound fractions, and recovery of the compounds.

The target in series [2] is T1, α2AAR (Homo sapiens, UniProt P08913).
T1 construct: host or cells: HEK293 (membranes)
T1 sequence (P08913 1-465): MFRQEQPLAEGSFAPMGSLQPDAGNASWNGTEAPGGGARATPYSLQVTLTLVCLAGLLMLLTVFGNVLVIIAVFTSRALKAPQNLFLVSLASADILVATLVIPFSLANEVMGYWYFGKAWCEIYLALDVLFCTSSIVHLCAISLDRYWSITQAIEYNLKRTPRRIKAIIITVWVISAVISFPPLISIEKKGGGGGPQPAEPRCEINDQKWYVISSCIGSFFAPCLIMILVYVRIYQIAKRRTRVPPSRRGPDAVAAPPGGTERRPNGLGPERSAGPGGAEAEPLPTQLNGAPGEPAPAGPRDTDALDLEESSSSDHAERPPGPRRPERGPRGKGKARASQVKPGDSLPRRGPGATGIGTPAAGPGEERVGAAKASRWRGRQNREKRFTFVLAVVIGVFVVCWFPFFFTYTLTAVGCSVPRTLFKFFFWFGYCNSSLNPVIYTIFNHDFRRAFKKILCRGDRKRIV
The series can be described thus: α2AAR binding assay ([3H]-RX 821002 radioligand). The settings on record: [3H]-RX 821002 0.5 nM, HEK293 membranes; read-out: α2A affinity (Ki).

Series [3] deals with P-glycoprotein (P-gp, MDR1) (Homo sapiens, UniProt P08183). Nature of the series: in vitro. To be noted: dog, MDCK-MDR1, pH 7.4. As for the experimental part: MDR1-MDCK II cells (obtained from Piet Borst at the Netherlands Cancer Institute) were seeded onto Polycarbonate membranes (PC) in 96-well insert systems at 3.33×10^5 cells/mL until to 4-7 days for confluent cell monolayer formation.
Sequence of P-glycoprotein (P-gp, MDR1) (P08183 whole entry): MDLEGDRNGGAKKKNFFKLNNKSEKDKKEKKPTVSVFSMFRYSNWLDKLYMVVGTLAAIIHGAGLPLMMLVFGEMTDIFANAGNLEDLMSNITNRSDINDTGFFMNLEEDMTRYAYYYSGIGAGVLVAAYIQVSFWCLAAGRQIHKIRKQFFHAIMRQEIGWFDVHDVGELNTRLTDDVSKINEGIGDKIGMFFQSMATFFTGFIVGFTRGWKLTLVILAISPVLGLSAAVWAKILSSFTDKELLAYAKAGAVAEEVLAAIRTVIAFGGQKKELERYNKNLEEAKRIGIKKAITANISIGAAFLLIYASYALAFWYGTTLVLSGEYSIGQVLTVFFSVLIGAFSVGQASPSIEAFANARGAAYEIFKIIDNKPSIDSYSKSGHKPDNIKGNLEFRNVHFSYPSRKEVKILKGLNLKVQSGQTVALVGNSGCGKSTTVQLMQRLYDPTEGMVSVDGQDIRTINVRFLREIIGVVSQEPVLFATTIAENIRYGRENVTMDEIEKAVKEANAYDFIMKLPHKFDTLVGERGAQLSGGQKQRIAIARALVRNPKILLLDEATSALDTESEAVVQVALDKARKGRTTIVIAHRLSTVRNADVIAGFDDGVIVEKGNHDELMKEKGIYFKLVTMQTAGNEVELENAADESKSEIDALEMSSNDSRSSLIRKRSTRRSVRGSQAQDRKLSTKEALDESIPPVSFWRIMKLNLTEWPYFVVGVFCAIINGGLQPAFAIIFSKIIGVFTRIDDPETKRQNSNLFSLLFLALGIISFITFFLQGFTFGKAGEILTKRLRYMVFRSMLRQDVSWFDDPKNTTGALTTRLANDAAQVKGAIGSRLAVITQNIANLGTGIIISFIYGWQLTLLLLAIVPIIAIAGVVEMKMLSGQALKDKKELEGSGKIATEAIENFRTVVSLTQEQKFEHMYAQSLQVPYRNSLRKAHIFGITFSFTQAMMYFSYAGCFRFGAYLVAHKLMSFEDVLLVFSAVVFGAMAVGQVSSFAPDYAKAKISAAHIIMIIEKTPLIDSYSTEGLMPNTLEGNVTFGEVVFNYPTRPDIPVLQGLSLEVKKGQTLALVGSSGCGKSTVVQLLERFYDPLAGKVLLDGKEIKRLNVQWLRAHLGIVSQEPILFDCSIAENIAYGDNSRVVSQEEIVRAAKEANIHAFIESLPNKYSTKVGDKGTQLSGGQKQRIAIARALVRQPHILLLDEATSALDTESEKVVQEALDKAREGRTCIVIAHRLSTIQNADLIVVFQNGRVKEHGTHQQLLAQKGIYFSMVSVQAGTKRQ
Selected α2AR agonist from table 3s were diluted with the transport buffer (HBSS with 10.0 mM Hepes, pH7.4) from DMSO stock solution to a concentration of 2 μM (DMSO<1%) and applied to the apical or basolateral side of the cell monolayer. […] Permeation of the test compounds from A to B direction and/or B to A direction was determined in duplicate. Digoxin was tested at 10.0 μM from A to B direction and B to A direction in duplicate. The plate was incubated for 2.5 hours in CO2 incubator at 37.0±1.0° C., with 5.0% CO2 at saturated humidity without shaking. In addition, the efflux ratio of each compound was also determined. Test and reference compounds were quantified by LC/MS/MS analysis based on the peak area ratio of analyte/IS.
After transport assay, lucifer yellow rejection assay was applied to determine the cell monolayer integrity. Buffers were removed from both apical and basolateral chambers, followed by the addition of 75 μL of 100 μM lucifer yellow in transport buffer and 250 μL transport buffer in apical and basolateral chambers, respectively. The plate was incubated for 30 minutes at 37.0° C. with 5.0% CO2 and 95.0% relative humidity without shaking. After 30 minutes incubation, 20 μL of lucifer yellow samples were taken from the apical sides, followed by the addition of 60 μL of transport Buffer. And then 80 μL of lucifer yellow samples were taken from the basolateral sides. The relative fluorescence unit (RFU) of lucifer yellow was measured at 425/528 nm (excitation/emission) with an Envision plate reader.
The apparent permeability coefficient Papp (cm/s) was calculated using the equation: […]
wherein dCr/dt is the cumulative concentration of compound in the receiver chamber as a function of time (μM/s); Vr is the solution volume in the receiver chamber (0.075 mL on the apical side, 0.25 mL on the basolateral side); A is the surface area for the transport, i.e. 0.143 cm2 for the area of the monolayer; and C0 is the initial concentration in the donor chamber (μM).
The efflux ratio was calculated using the equation: […]

For series [4], the target named is T2, α2AAR (α2A-adrenergic receptor) (Homo sapiens, UniProt P08913).
T2 construct: expressed in transfected cells; host or cells: HEK293
T2 sequence (P08913 1-465): T1 sequence (P08913 1-465)
Nature of the series: α2AAR FLIPR assay (agonist activity). It is filed as cell-based. The settings on record: FLIPR, α2AAR cell line hosted in HEK293 cells; read-out: α2A agonist activity (EC50). In a few lines: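 HEK293 cells expressing α2AAR loaded with Fluo-4 Direct plus probenecid for 50 min at 37° C and 10 min at room temperature, then treated with serially diluted compounds.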

Consider `CC(C)NCC(O)COc1cccc2ccccc12` (stereo not drawn) [Propranolol, propranolol], for which the recovery at 4 h, 2 μM in series [1] is 109%. Moreover, in series [1] (4 h, 2 μM), the “% Undiluted Bound (n = 3)” value amounted to 97.4%. Also, the “% Undiluted Unbound (n = 3)” value in series [1] (brain homogenate, 4 h, 2 μM) turned out to be 2.6%.
Take `Cc1cccc(C(Cc2ccc(NC(=O)CC3CCOCC3)cc2)c2c[nH]cn2)c1C` (stereo not drawn) [compound 165]: the Ki in series [2] is under 10 nM. The efflux ratio at 2.5 h, 2 μM in series [3] came to 14.8. Further, the 50% effective concentration (EC50) in series [4] was under 10 nM.
As to `Cc1cccc(C(Cc2ccc(C(=O)NC3CCOCC3)nc2)c2c[nH]cn2)c1C` (stereo not drawn) [compound 186], the Ki in series [2] lay in the range of 10 to 50 nM. For the same compound, the efflux ratio at 2.5 h, 2 μM in series [3] stood at 3.38. Moreover, the EC50 in series [4] fell in the range of 10 to 50 nM.
For `Cc1cccc(C(Cc2ccc(C(=O)NC3CCOCC3)c(F)c2)c2c[nH]cn2)c1C` (stereo not drawn) [compound 187], the Ki in series [2] is under 10 nM. In addition, in series [3], the efflux ratio at 2.5 h, 2 μM amounted to 2.6. Further, the EC50 in series [4] fell in the range of 10 to 50 nM.
For `CC(=O)Nc1ccc(CC(c2c[nH]cn2)c2cccc(C)c2C)cc1` (stereo not drawn) [compound 190], in that order: under 10 nM, 4.91 and 10 to 50 nM.
Consider `Cc1cccc(C(Cc2ccc(NC(=O)C3COC3)cc2)c2c[nH]cn2)c1C` (stereo not drawn) [compound 200], for which the Ki in series [2] is under 10 nM. The efflux ratio at 2.5 h, 2 μM in series [3] is 27.7. In series [4], the EC50 was 10 to 50 nM.
Consider `Cc1cccc(C(Cc2ccc(NC(=O)NC3CCOCC3)cc2)c2c[nH]cn2)c1C` (stereo not drawn) [compound 205], for which, in series [2], the Ki was under 10 nM. Also, the efflux ratio at 2.5 h, 2 μM in series [3] was determined as 61.8. Further, in series [4], the half-maximal effective concentration (EC50) fell in the range of 10 to 50 nM.
For the compound `Cc1cccc(C(Cc2ccc(S(N)(=O)=O)c(F)c2)c2c[nH]cn2)c1C` (stereo not drawn) [compound 208], in series [2], the inhibitory constant (Ki) was under 10 nM. Besides, the efflux ratio at 2.5 h, 2 μM in series [3] was found to be 8.88. Further, in series [4], the EC50 was under 10 nM.
With `COc1cc(CC(c2c[nH]cn2)c2cccc(C)c2C)ccc1C(=O)NC1CCOCC1` (stereo not drawn) [compound 213], the inhibitory constant (Ki) in series [2] was under 10 nM. The efflux ratio at 2.5 h, 2 μM in series [3] came out at 4.92. For the same compound, the EC50 in series [4] was under 10 nM.
`Cc1cccc(C(Cc2ccc(NC(=O)NC3COC3)cc2)c2c[nH]cn2)c1C` (stereo not drawn) [compound 214]: the Ki in series [2] was under 10 nM. Moreover, the efflux ratio at 2.5 h, 2 μM in series [3] turned out to be 56.1. The EC50 in series [4] was 10 to 50 nM.
For `CNC(=O)c1ccc(CC(c2c[nH]cn2)c2cccc(C)c2C)cc1` (stereo not drawn) [compound 215], in that order: under 10 nM, 4.77 and under 10 nM.
With `Cc1cccc(C(Cc2ccc(C(=O)N(C)C)cc2)c2c[nH]cn2)c1C` (stereo not drawn) [compound 216], the Ki in series [2] is under 10 nM. The efflux ratio at 2.5 h, 2 μM in series [3] is 3.21. The EC50 in series [4] is under 10 nM.
As for `Cc1cccc(C(Cc2ccc(S(N)(=O)=O)cc2)c2c[nH]cn2)c1C` (stereo not drawn) [compound 217], the Ki in series [2] was under 10 nM. In addition, in series [3], the efflux ratio at 2.5 h, 2 μM was determined as 17.5. Further, in series [4], the EC50 is under 10 nM.
Turning to `Cc1cccc(C(Cc2ccc(C(=O)NO)cc2)c2c[nH]cn2)c1C` (stereo not drawn) [compound 219], the Ki in series [2] is under 10 nM. Moreover, the efflux ratio at 2.5 h, 2 μM in series [3] was determined as 26.9. The 50% effective concentration (EC50) in series [4] was under 10 nM.
As to `CCc1cscc1C(c1cccc(NS(C)(=O)=O)c1)c1c[nH]cn1` (stereo not drawn) [compound 401], in series [2], the Ki was under 10 nM. For the same compound, the efflux ratio at 2.5 h, 2 μM in series [3] came out at 22. Moreover, the EC50 in series [4] is 10 to 50 nM.
